In patent US11478474B2, “2-(3′-(hydroxymethyl)-1-methyl-5-((5-(2-methyl-4-(oxetan-3-yl)piperazin-1-yl)pyridin-2-yl)amino)-6-oxo-1,6-dihydro-[3,4′-bipyridin]-2′-yl)-7,7-dimethyl-7,8-dihydro-2H-cyclopenta[4,5]pyrrolo[1,2-a]pyrazin-1(6H)-one as a BTK inhibitor” (HUTCHISON MEDIPHARMA LIMITED, priority 2020, dated 2022):

Columns and labels:
[1] = system: TMD8 subcutaneous xenograft (human diffuse large B-cell lymphoma cells); test: In vivo efficacy in TMD8 subcutaneous xenograft model in nude mice
Method: Example 7 Evaluation of In Vivo Efficacy of the Compound of the Present Invention in TMD8 Subcutaneous Xenograft Model
Objects: To investigate the anti-tumor activity of compound 19 in TMD8 subcutaneous xenograft model in nude mice.
Methods: Human diffuse large B-cell lymphoma cells TMD8 (acquired under license from Tokyo Medical and Dental University) were cultured in RPMI1640 medium containing 10% fetal bovine serum. 1×10^7 tumor cells suspended in RPMI1640 medium mixed well with Matrigel (purchased from Corning, USA) at 1:1 were implanted subcutaneously on the right flank of each male Balb/c nude mouse (Shanghai Lingchang Biotechnology Co., Ltd.), pretreated with cyclophosphamide (at a dose of 200 mg/kg, intraperitoneal injection 24 h before cell inoculation). […] All drugs were administered by oral gavage, once a day, and the vehicle control group was administered orally with 0.5% hydroxypropyl methylcellulose solution (pH=3).
Tumor volumes (tumor volume=0.5×long diameter×short diameter^2) and body weights of the mice were measured regularly. The tumor volume change and body weight were statistically analyzed, with p<0.05 considered statistically significant, and p<0.01 as extremely statistically significant.
The anti-tumor activity was evaluated by tumor growth inhibition. Tumor growth inhibition (TGI %)=100%×(1−(TVDt (treatment group)−TVD0 (treatment group))/(TVDt (control group)−TVD0 (control group))) Relative body weight (RBW %)=BWDt/BWD0×100%
wherein, TVD0 represents the tumor volume obtained at first measurement, namely, the tumor volume before drug administration, and TVDt represents the tumor volume on the day of measurement; BWD0 represents the body weight of the animal obtained at first measurement, namely, the body weight of the animal before drug administration; BWDt represents the body weight of the animal on the day of measurement.

[2] = Stability test in liver microsomes (rat); format: in vitro ADME; details: rat liver microsomes 0.5 mg/mL, compound 1 μM, 37° C.
Text: (§1) Example 5 Stability Test in Liver Microsomes
(§2) Both male CD-1 mouse pooled liver microsomes and male SD rat pooled liver microsomes were purchased from BioreclamationIVT Corporation, USA.
(§3) Phenacetin, glucose-6-phosphate dehydrogenase (G-6-PDH) and nicotinamide adenine dinucleotide phosphate (NADP) were all purchased from Sigma-Aldrich Corporation, USA. Glucose-6-phosphate (G-6-P) was purchased from Shanghai Eybridge Chemical Technology Co., Ltd.
(§4) Ten mM test compound stock solution: a certain amount of test compound was weighed, and dissolved with an appropriate volume of DMSO to prepare a stock solution with a concentration of 10 mM for use.
(§5) Reaction stopping solution: an appropriate amount of internal standard compound phenacetin was dissolved in acetonitrile to prepare a reaction stopping solution with a concentration of 1000 ng/mL for use at room temperature.
(§6) The test compound stock solution was diluted with an organic solvent (usually a mixture of acetonitrile, methanol and water with various ratios, depending on the solubility of the compound, if necessary, 1 N hydrochloric acid or 1 N sodium hydroxide would be added to facilitate solubilization) to the 0.1 mM (the final concentration of the compound in the reaction system was 1 μM) and the concentration percentage of the organic solvents in the incubation system no more than 1% (wherein the percentage of DMSO was required to be no more than 0.1%). An appropriate amount of 100 mM NADP, 500 mM G-6-P and 100 Unit/mL G-6-PDH were mixed and diluted with ultrapure water (the final system contains 1 mM NADP, 5 mM G-6-P and 1 Unit/mL G-6-PDH), pre-incubated in a 37° C. water bath for 10 minutes and then placed on ice for use as a NADPH regeneration solution. 20 mg/mL liver microsomes solution and 200 mM phosphate buffer was mixed, and diluted with ultrapure water to give a liver microsomes solution containing 2.5 mg/mL liver microsomes (the final concentration of the reaction system is 0.5 mg/mL) and 50 mM phosphate buffer. The diluted liver microsomes solution was mixed with 0.1 mM compound solution, a mixture of 100 mM EDTA, 300 mM MgCl2 solution, 200 mM phosphate buffer (the final system was 3 mM MgCl2, 1 mM EDTA and 50 mM phosphate buffer) and water in an appropriate volume was added. Finally, the NADPH regeneration solution was added, then the reaction solution was placed in a 37° C. water bath to start the reaction (the reaction time was 30 minutes), and the reaction was stopped by adding the ice-cold acetonitrile reaction stopping solution containing the internal standard. The 0-minute sample was not incubated in a 37° C. water bath, and its difference from the 30-minute sample further lies in that the ice-cold acetonitrile reaction stopping solution containing the internal standard was added first, and then the NADPH regeneration solution was added. The sample added with the reaction stopping internal standard solution was vortexed and mixed well, and then centrifuged at 4400 rpm for 10 minutes. The supernatant was taken and diluted ten times with 50% methanol for LC-MS/MS analysis.
(§7) LC-MS/MS was used to determine the concentration of the compound in the sample. The percentage of the remaining compound after 30 minutes of incubation comparing with that in the 0-minute sample was calculated using the peak area ratio of the compound to the internal standard as an indicator, to evaluate the metabolic stability of the compound.
(§8) Instrument: API4500, API4000 or LTQ Mass Spectrometer; the liquid phase is UHPLC system (Shimadzu LC-30 AD, model Nexra X2) including liquid delivery unit, column thermostat, detector and autosampler; or Agilent 1200 Binary Pump series HPLC and CTC Autosampler.
(§9) Chromatographic column: Waters XSELECT Hss T3 C18 (2.5 μm, 2.1×50 mm) or […] (5 μm, 2.0×50 mm)
(§10) A: water with 0.1% FA (formic acid) (with or without 0.1% ACN (acetonitrile))
(§11) B: acetonitrile with 0.1% FA (formic acid).

[3] = Stability test in liver microsomes (mouse); format: in vitro ADME; details: mouse liver microsomes 0.5 mg/mL, compound 1 μM, 37° C.
Text: as §1, §2, §3, §4, §5, §6, §7, §8, §9, §10, §11

[4] = 10 mg/kg oral gavage once a day, Day 21

RLM (percentage of the remaining compound after 30 minutes of incubation) [2]: 81.0%
MLM (percentage of the remaining compound after 30 minutes of incubation) [3]: 76.3%
SMILES: C[C@H]1CN(C2COC2)CCN1c1ccc(Nc2cc(-c3ccnc(N4CCn5c(cc6c5CC(C)(C)C6)C4=O)c3CO)cn(C)c2=O)nc1 [GDC-0853, fenebrutinib, reference compound]
Number of animals with CR (Day 21) ([1]; 10 mg/kg oral gavage once a day, 8 animals per group): 0
Tumor volume (mm^3) ± SD Day 0 ([1]; 10 mg/kg oral gavage once a day, Day 0, before drug administration): 397 ± 46 mm^3
TGI (%) [1, 4]: −12.8%
Tumor volume (mm^3) ± SD Day 21 [1, 4]: 3585 ± 494 mm^3
RBW (%) (Day 21) ([1]; 10 mg/kg oral gavage once a day, relative body weight): 115.5%
Tumor growth inhibition (TGI %) ([1]; 10 mg/kg, oral gavage once a day, 21 days after treatment, vs vehicle control): −12.8%
